The record followed here is ChEMBL document CHEMBL1141175, “Synthesis and antiviral evaluation of cis-substituted cyclohexenyl and cyclohexanyl nucleosides” (J Med Chem, 2005).

The test system of one experiment is Coxsackievirus. Description: Effective concentration required to inhibit Coxsackie B3 virus induced cytopathicity in vero cells. The format is functional, organism-based.
The test system of another experiment is Human alphaherpesvirus 1. Description: Effective concentration required to inhibit herpes simplex virus type 1 Kos strain induced cytopathicity in Hel cells. The format is functional, organism-based. Particulars: Human alphaherpesvirus 1, HEL.

Turning to `Cc1cn([C@H]2CCC[C@@H](CO)C2)c(=O)[nH]c1=O` (racemic), the EC50 with Coxsackievirus is 168 µM; in the experiment with Human alphaherpesvirus 1, more than 200 µM.

Consider `Nc1ccn([C@H]2CCC[C@@H](CO)C2)c(=O)n1` (racemic), for which the EC50 is more than 200 µM in the experiment with Coxsackievirus and 62 µM in the experiment with Human alphaherpesvirus 1.

For the compound `Nc1nc2c(ncn2COCCO)c(=O)[nH]1` [ACYCLOVIR], a half-maximal effect in the experiment on Human alphaherpesvirus 1 (EC50) was put at 0.32 µM.

With `Nc1ncnc2c1ncn2[C@H]1C=CC[C@@H](CO)C1` (racemic), the EC50 in the experiment on Coxsackievirus and in the experiment on Human alphaherpesvirus 1 was more than 200 µM in each case.

In the case of `Nc1nc(O)c2ncn([C@H]3C=CC[C@@H](CO)C3)c2n1` (racemic), the EC50 in the experiment on Coxsackievirus and in the experiment with Human alphaherpesvirus 1 was more than 200 µM in each case.

Turning to `Cc1cn([C@H]2C=CC[C@@H](CO)C2)c(=O)[nH]c1=O` (racemic), the figures for the EC50 in the experiment with Coxsackievirus and in the experiment with Human alphaherpesvirus 1 were more than 200 µM and 63 µM, respectively.

As to `N#Cc1cc([N+](=O)[O-])ccc1Oc1ccc(Cl)c(Cl)c1`, the EC50 in the experiment with Coxsackievirus turned out to be 5.84 µM.

Regarding `Nc1ncnc2c1ncn2[C@H]1CCC[C@@H](CO)C1` (racemic), the EC50 in the experiment on Coxsackievirus and in the experiment on Human alphaherpesvirus 1 was more than 200 µM each time.

For `Nc1ccn([C@H]2C=CC[C@@H](CO)C2)c(=O)n1` (racemic), the EC50 with Coxsackievirus and in the experiment with Human alphaherpesvirus 1 was more than 200 µM throughout.

In the experiment with Human alphaherpesvirus 1, `Nc1nc2c(ncn2COC(CO)CO)c(=O)[nH]1` [GANCICLOVIR] yielded an EC50 of 0.06 µM.
